Results from patent US8058228B2, “Leptin peptide antagonists” (Boston Biomedical Research Institute, priority 2004, dated 2011).
“Also recorded” adds a separate entry of the source.

Tests used:
Format in all cases: cell-based
OB-R [1] = experiment: IL-1R tl expression by rabbit endometrial cells (immunocytochemistry, Western blot); settings: for effect on leptin up-regulation of IL-1R tl expression: LPA-2 30 and 120 nM, LPA-2Sc 120 nM, antibody 20 μg/ml
Method: (§1) Rabbit endometrial cells (5×10^5 cells/well) were cultured for 5-9 days in DMEM-MCDB105 (3:1) medium containing 10% fetal bovine serum (FBS), 5 μg/ml insulin, 1% amphopthericin B, 100 μg/ml streptomycin and 100 U/ml penicillin until confluent layers were obtained. The cells were washed twice with 100 mM phosphate saline buffer (PBS) −2% BSA (w/v), pH 7.2 and cultured for an additional 2 days in the same medium but without FBS (basal medium). This procedure was performed to reduce any effects of cytokines from FBS on the phosphorylation rate of Stat3 as well as the expression of other cytokines and their receptors. Cells were washed as described before and cultured in basal medium containing leptin (0-10 nM), OB-R antibody (1-20 μg/ml) and/or LPA-2 peptides (0-300 nM). Cultures were stopped at 24 h and the cells were used for immunocytochemistry, binding studies and western blot analysis. The conditioned media were collected, lyophilized and stored at −80° C. for ELISA determinations. Duplicate wells were run for each treatment and the experiments repeated at least three times with different cell preparations from different rabbits. Controls were the same cellular preparations cultured in basal medium containing non-specific goat IgGs and LPA-2Sc.
The rabbit endometrial cells were cultured as described above in duplicate on 8-well glass-bottom culture plates (Nalgene Nunc International, Naperville, Ill.) and fixed with methanol at −20° C. for 20 min for immunocytochemical studies. All the antibodies tested were diluted in PBS-2% BSA (w/v; buffer A).
Anti IL-1R tl (1 μg/ml), anti LIF-R (2 μg/ml), anti vimentin (1:50), anti cytokeratin (1:50) and anti p-Stat3 (1 μg/ml) antibodies were used to assess the expression of the respective antigens by rEEC and rESC cultures. After incubation with primary antibodies the cells were incubated with a streptavidin-biotin-alkaline phosphatase system according to the manufacturer directions (Vectastain, ABC-AP kit, Vector Laboratories, Burlingame, Calif.) and counter-stained with hematoxylin (Dako). Negative controls included cell preparations in which the primary antibodies were substituted by irrelevant species matched IgGs.
(§2) After culture in the presence of leptin, LPAs or antibodies, the endometrial cells were washed with ice-cold PBS and lysed by homogenization on ice with lysis buffer [[…] Tris, pH 7.4, containing […] NaCl, 2 mM EDTA, 10% glycerol, 50 mM β-glycerophosphate, […] NaF, 1% Nonidet P-40, 2 mM phenyl-methylsulfonyl fluoride, 2 mM sodium orthovanadate, 100 μM antipain, 0.1 mg/ml trypsin inhibitor and protease cocktail inhibitor 1:50 (Sigma)]. […] Protein concentrations were determined using the Bradford protein assay (BioRad Laboratories Inc., Hercules, Calif.). […]

OB-R [2] = experiment: LIF secretion by rabbit endometrial cell cultures (ELISA)
Method: as §1
IL-1β from rabbits and humans have sequence differences, but no data is available concerning the sequence of rabbit LIF. In addition, there are no commercial kits for measuring rabbit IL-1β or LIF. […] Conditioned media (n=3 per treatment) from rESC and rEEC cultured in the experimental conditions described above were used to quantify the secretion of LIF by ELISA (LIF-Quantikine®, R&D Systems). Standards, controls, and samples were assayed in duplicate. The intra- and interassay coefficients of variations were between 0.7-12% and 3-7%, respectively.

OB-R [3] = experiment: OB-R expression by rabbit endometrial cells (immunocytochemistry, Western blot); settings: cultures of rESC or rEEC
Method: Rabbit endometrial cells (5×10^5 cells/well) were cultured for 5-9 days in DMEM-MCDB105 (3:1) medium containing 10% fetal bovine serum (FBS), 5 μg/ml insulin, 1% amphopthericin B, 100 μg/ml streptomycin and 100 U/ml penicillin until confluent layers were obtained. The cells were washed twice with 100 mM phosphate saline buffer (PBS) −2% BSA (w/v), pH 7.2 and cultured for an additional 2 days in the same medium but without FBS (basal medium). This procedure was performed to reduce any effects of cytokines from FBS on the phosphorylation rate of Stat3 as well as the expression of other cytokines and their receptors. […]
The expression of OB-R was assessed by incubation of rEC for 1 h at room temperature with goat antibodies directed towards the amino terminal ends of human OB-R (R&D system) diluted 1:80 in buffer A.
as §2

Substance | effect on leptin up-regulation of IL-1R tl expression (OB-R [1]; rESC, leptin 3 nM) | IL-1R tl expression after leptin (OB-R [1]; rabbit endometrial cells, leptin 3 nM) | LIF secretion after leptin (OB-R [2]; rEEC and rESC, more evident in rEEC) | expression of OB-R (OB-R [3]) | effect on basal expression of IL-1R tl (OB-R [1]; rESC, LPA-2 120 nM, Western blot) | effect on leptin induction of LIF secretion (OB-R [2]; rEEC, leptin 3 nM with LPA-2 3 to 300 nM, OB-R antibody 20 μg/ml) | effect on leptin-induced LIF secretion at the higher leptin dose (OB-R [2]; rEEC, leptin 10 nM, equimolar LPA-2 (10 nM))
VAEVLNRSDLIQRISFSLDLNNSKLH [LPA-2Sc, scrambled version of LPA-2, negative control, reference compound] | did not alter the leptin effect on IL-1R tl expression | – | – | – | – | – | –
leptin: human recombinant leptin (R&D Systems), OB-R ligand used as stimulus | – | substantially up-regulates IL-1R tl expression | increased LIF secretion in a dose-dependent manner | did not affect the expression of OB-R | – | – | –
SRNVIQISNDLENLRDLLHVLAFSKS [LPA-2, 26 amino acid peptide, residues 70-95 of helix III of the human leptin molecule; leptin peptide antagonist] | completely abolished; also recorded: significantly decreased | – | – | did not affect the expression of OB-R | inhibited the basal expression of IL-1R tl | significantly inhibited the leptin (3 nM) induction of LIF secretion | effectively inhibited; also recorded: completely inhibited
